In patent US20240335462A1, “SULFUR/PHOSPHORUS-CONTAINING ARYL COMPOUND AND APPLICATION THEREOF” (MEDSHINE DISCOVERY INC., priority 2021, published 2024):
Read-outs that look alike come from different tables or passages of the source.

Legend:
[1] = test system: JAK1/2 signaling pathway (IL-6/pSTAT3); test: IL-6-induced STAT phosphorylation in human whole blood; type: cell-based
Procedure: The purpose of this experiment was to detect the inhibitory effect of the compound on the JAK-STAT signaling pathway activated by cytokines in human whole blood or platelet-rich plasma. Fresh human whole blood/platelets were placed in a 96-well plate. The test compound was added and incubated for 1 hour, followed by stimulation with various cytokines. The corresponding STAT phosphorylation levels in different cell populations were analyzed using flow cytometer by means of surface antibody staining and intracellular phosphorylated antibody staining. The experiments using the cytokines IFN-α, […] as stimulants were conducted in human whole blood, whereas the experiment using the cytokine TPO as a stimulant was conducted in platelet-rich plasma.
• a) Fresh blood from volunteers was collected using EDTA anticoagulant tubes. • b) 90 μL per well of whole blood was rapidly seeded into a 96-well plate and incubated in a cell culture incubator for 15 minutes. […] The plate was centrifuged at 500×g for 8 minutes, and the supernatant was discarded. • g) The cell pellet was washed once with pre-cooled PBS. • h) After discarding the supernatant, anti-human CD3 antibody was added thereto, followed by incubation at room temperature for 40 minutes. • i) The plate was centrifuged at 500×g for 8 minutes, then the supernatant was discarded, and the cells were washed twice with 200 μL of pre-cooled PBS. • j) The cells were resuspended in 200 μL of pre-cooled Perm Buffer III per well and permeabilized on ice for 60 minutes. • k) The plate was centrifuged at 600×g for 8 minutes, then the supernatant was discarded, and the cells were washed twice with pre-cooled PBS. • l) Intracellular staining with anti-pSTAT5 antibody was carried out, followed by incubation at room temperature for 60 minutes. • m) The cells were centrifuged at 600×g for 8 minutes, washed twice with PBS, resuspended in 200 μL of PBS, and detected using the CytoFlex S flow cytometer. • n) Data analysis was conducted using FlowJo and GraphPad Prism 8 software.
Data were analyzed using FlowJo software. […]

[2] = Pharmacokinetic testing in mice; type: in vivo, male CD-1 mice; conditions: mouse; for C0: read-out: Starting concentration C0; for Cmax: read-out: Peak concentration Cmax; for Vd: read-out: Apparent volume of distribution Vd; for AUC(0-t): read-out: Area under the curve AUC0-last; for half-life: read-out: Half-life T1/2 (converted); for bioavailability: read-out: Bioavailability F %; for Tmax: read-out: Time to peak concentration Tmax
Procedure: The objective was to study the pharmacokinetic behavior of the compound of the present disclosure in mice and evaluate the pharmacokinetic characteristics, using male CD-1 mice aged 7 to 9 weeks as test animals. The drug concentrations in plasma at different time points after a single intravenous injection (IV) and oral administration (PO) of the compound were determined using LC/MS/MS.
The pharmacokinetic characteristics of the compound in rodents following intravenous injection and oral administration were tested using a standard protocol. Test animals were fasted for 10 to 14 hours before administration and allowed to feed 4 hours post-administration. The compound was prepared into a clear solution with the appropriate solvent for both IV (intravenous injection) and PO (oral gavage) administration. The solvent was 10% DMSO+10% solutol+80% (10% HP-β-CD aqueous solution). Whole blood samples were collected within 24 hours, centrifuged at 6000 g for 3 minutes, and the supernatant was separated to obtain plasma samples. Protein precipitation was performed by adding four times the volume of acetonitrile solution containing internal standard to the plasma samples. After centrifugation, the supernatant was added with an equal volume of water and then centrifuged before being subjected to LC-MS/MS analysis for quantifying plasma drug concentration. Pharmacokinetic parameters such as peak concentration, time to peak concentration, clearance, half-life, area under the drug-time curve, and bioavailability were calculated.

[3] = male, CD-1, plasma, PO 10 mg/kg

In the case of `CNC(=O)c1nnc(NC(=O)C2CC2)cc1Nc1cccc(-c2ncc(S(=N)(=O)C(C)C)cn2)c1OC` (single isomer, unassigned) [WX-011A], the IC50 [1] is reported as 10.8 µM, the “Apparent clearance Cl” value ([2]; IV 3 mg/kg) is reported as 14.1 mL/min/kg and the “Apparent volume of distribution Vd” value ([2]; IV 3 mg/kg) is reported as 0.8 L/kg. The “Area under the curve AUC0-last” value ([2]; IV 3 mg/kg) was 6.908 µM·h, the “Half-life T1/2” value ([2]; IV 3 mg/kg) was 252 min and the C0 ([2]; IV 3 mg/kg) was 9.92 µM. The “Area under the curve AUC0-last” value ([2]; PO 10 mg/kg) was 26.715 µM·h, the “Bioavailability F %” value ([2]; PO 10 mg/kg) was 51% and the “Time to peak concentration Tmax” value ([2]; PO 10 mg/kg) was 18 min. It also gave a Cmax ([2]; PO 10 mg/kg) of 16.8 µM.
With `CNC(=O)c1cnc(NC(=O)C2CC2)cc1Nc1cccc(-c2ccc(S(=O)(=O)C(C)C)cn2)c1OC.Cl` [Hydrochloride of WX-020] the “Apparent clearance Cl” value ([2]; IV 3 mg/kg) was 7.0 mL/min/kg, the “Apparent volume of distribution Vd” value ([2]; IV 3 mg/kg) was 1.1 L/kg and the “Area under the curve AUC0-last” value ([2]; IV 3 mg/kg) was 14.13 µM·h. The “Half-life T1/2” value ([2]; IV 3 mg/kg) was 138 min, the C0 ([2]; IV 3 mg/kg) was 8.04 µM and the “Area under the curve AUC0-last” value ([2]; PO 10 mg/kg) was 56.784 µM·h. The “Bioavailability F %” value ([2]; PO 10 mg/kg) was 121%, the “Time to peak concentration Tmax” value ([2]; PO 10 mg/kg) was 30 min and the Cmax ([2]; PO 10 mg/kg) was 15.5 µM.
In the case of `CNC(=O)c1cnc(NC(=O)C2CC2)cc1Nc1cccc(-c2ncc(S(=O)(=O)C(C)C)cn2)c1OC` [WX-019], the IC50 [1] is reported as 33.9 µM, the Vd ([2]; male, CD-1, plasma, IV 3 mg/kg) is reported as 0.4 L/kg and the AUC(0-t) ([2]; male, CD-1, plasma, IV 3 mg/kg) is reported as 21 µM·h. It also gave a half-life ([2]; male, CD-1, plasma, IV 3 mg/kg) of 66 min, a C0 ([2]; male, CD-1, plasma, IV 3 mg/kg) of 16.3 µM and an AUC(0-t) [2, 3] of 61.2 µM·h. It also gave a bioavailability [2, 3] of 87%, a Cmax [2, 3] of 17.3 µM and a Tmax [2, 3] of 48 min. The “Apparent clearance Cl” value ([2]; IV 3 mg/kg) was 4.7 mL/min/kg.
With `CNC(=O)c1cnc(NC(=O)C2CC2)cc1Nc1cccc(-c2ccc(S(=O)(=O)C(C)C)cn2)c1OC` [WX-020] the IC50 [1] was > 100 µM.
Compound `CNC(=O)c1nnc(NC(=O)C2CC2)cc1Nc1cccc(-c2ccc(P(=O)(C3CC3)C3CC3)cn2)c1OC` [WX-021] has a Vd ([2]; male, CD-1, plasma, IV 3 mg/kg) of 0.9 L/kg, an AUC(0-t) ([2]; male, CD-1, plasma, IV 3 mg/kg) of 11.9 µM·h and a half-life ([2]; male, CD-1, plasma, IV 3 mg/kg) of 174 min. It also gave a C0 ([2]; male, CD-1, plasma, IV 3 mg/kg) of 9.89 µM, an AUC(0-t) [2, 3] of 20.7 µM·h and a bioavailability [2, 3] of 52%. The Cmax [2, 3] was 11.3 µM, the Tmax [2, 3] was 18 min and the “Apparent clearance Cl” value ([2]; IV 3 mg/kg) was 8.5 mL/min/kg.
